Experimental data published in patent publication US9828379B2 (priority 2013, dated 2017).

Columns and labels:
MAGL [1] = molecular target: T1, MAGL (Mus musculus, UniProt O35678); assay: biochemical; conditions: mouse; in vitro competitive ABPP; read-out: Mouse (IC50 value, nM) MAGL
T1 sequence (O35678 1-303): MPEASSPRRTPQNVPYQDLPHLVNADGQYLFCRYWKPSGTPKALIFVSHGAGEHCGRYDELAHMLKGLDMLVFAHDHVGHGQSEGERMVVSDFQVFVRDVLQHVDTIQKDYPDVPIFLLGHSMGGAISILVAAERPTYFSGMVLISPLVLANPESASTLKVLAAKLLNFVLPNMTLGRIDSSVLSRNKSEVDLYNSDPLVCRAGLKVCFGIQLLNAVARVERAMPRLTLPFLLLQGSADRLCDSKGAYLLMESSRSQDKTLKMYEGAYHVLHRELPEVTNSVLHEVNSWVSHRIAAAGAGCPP

MAGL [2] = molecular target: T1, MAGL; assay: In vitro competitive activity-based protein profiling (Table 2, % inhibition at 1 μM); format: biochemical; conditions: read-out: % Inhibition at 1 μM MAGL
Experimental: After 30 min, FP—Rh (1.0 μL, 50 μM in DMSO) was added and the mixture was incubated for another 30 min at 37° C. Reactions were quenched with SDS loading buffer (50 μL-4×) and run on SDS-PAGE.
Cell lysates were diluted with mock proteomes for use in competitive ABPP experiments.

FAAH [3] = molecular target: T2, FAAH (Mus musculus, UniProt O08914); assay: biochemical; conditions: in vitro competitive ABPP
T2 sequence (O08914 1-579): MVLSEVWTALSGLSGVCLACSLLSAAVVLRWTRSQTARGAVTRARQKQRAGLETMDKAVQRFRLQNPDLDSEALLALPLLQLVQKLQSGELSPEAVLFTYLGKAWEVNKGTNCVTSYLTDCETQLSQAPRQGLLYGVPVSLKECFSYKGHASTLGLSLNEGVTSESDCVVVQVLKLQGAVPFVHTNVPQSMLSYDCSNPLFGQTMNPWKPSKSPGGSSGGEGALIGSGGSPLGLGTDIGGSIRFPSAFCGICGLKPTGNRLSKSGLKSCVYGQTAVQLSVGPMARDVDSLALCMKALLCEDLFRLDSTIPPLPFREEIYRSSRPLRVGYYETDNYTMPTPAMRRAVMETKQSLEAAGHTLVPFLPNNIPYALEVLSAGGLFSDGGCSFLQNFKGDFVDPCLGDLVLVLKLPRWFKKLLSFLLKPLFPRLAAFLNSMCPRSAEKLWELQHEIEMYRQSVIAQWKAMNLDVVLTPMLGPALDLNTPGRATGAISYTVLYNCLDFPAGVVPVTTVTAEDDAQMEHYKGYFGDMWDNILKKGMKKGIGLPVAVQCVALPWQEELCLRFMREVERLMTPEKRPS

ABHD6 [4] = molecular target: T3, ABHD6 (Mus musculus, UniProt Q8R2Y0); assay: biochemical; conditions: in vitro competitive ABPP
T3 sequence (Q8R2Y0 1-336): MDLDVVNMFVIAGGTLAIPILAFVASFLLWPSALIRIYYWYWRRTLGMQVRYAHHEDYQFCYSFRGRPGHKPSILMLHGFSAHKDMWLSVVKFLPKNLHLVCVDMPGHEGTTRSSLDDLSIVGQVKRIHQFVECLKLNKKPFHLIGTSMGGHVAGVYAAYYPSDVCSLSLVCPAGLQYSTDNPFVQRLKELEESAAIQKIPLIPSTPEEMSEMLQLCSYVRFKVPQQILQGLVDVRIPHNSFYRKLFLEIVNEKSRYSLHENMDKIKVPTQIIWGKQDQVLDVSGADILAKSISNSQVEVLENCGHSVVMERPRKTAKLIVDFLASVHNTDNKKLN

ABHD6 [5] = molecular target: T3, ABHD6; assay: In vitro competitive activity-based protein profiling (Table 2, % inhibition at 1 μM); format: biochemical; conditions: read-out: % Inhibition at 1 μM ABHD6
FAAH [6] = molecular target: T2, FAAH; assay: as above; format: biochemical; conditions: read-out: % Inhibition at 1 μM FAAH

| SMILES | IC50 (MAGL [1]) | inhibition at 1 µM (MAGL [2]) | IC50 (FAAH [3]) | IC50 (ABHD6 [4]) | inhibition at 1 µM (ABHD6 [5]) | inhibition at 1 µM (FAAH [6]) |
| --- | --- | --- | --- | --- | --- | --- |
| O=C(OC(C(F)(F)F)C(F)(F)F)N1CC2CN(Cc3cc(CN4CCCC4)cc(OC(F)(F)F)c3)CC2C1 (stereo not drawn) [Example 185, 1,1,1,3,3,3-hexafluoropropan-2-yl 5-(3-(pyrrolidin-1-ylmethyl)-5-(trifluoromethoxy)benzyl)hexahydropyrrolo[3,4-c]pyrrole-2(1H)-carboxylate] | 100 to 1000 nM | > 75% | > 10000 nM | 1000 to 10000 nM | < 25% | < 25% |
| CC(=O)N1CCN(c2ccc(CN3CC4CN(C(=O)OC(C(F)(F)F)C(F)(F)F)CC4C3)c(Cl)c2)CC1 (stereo not drawn) [Example 28, 1,1,1,3,3,3-Hexafluoropropan-2-yl 5-[[4-(4-acetylpiperazin-1-yl)-2-chlorophenyl]methyl]-octahydropyrrolo[3,4-c]pyrrole-2-carboxylate] | < 100 nM | > 75% | 100 to 1000 nM | 1000 to 10000 nM | < 25% | 25 to 75% |
| CC(=O)NC1CN(c2ccc(Cl)cc2CN2CC3CN(C(=O)OC(C(F)(F)F)C(F)(F)F)CC3C2)C1 (stereo not drawn) [Example 7, 1,1,1,3,3,3-Hexafluoropropan-2-yl 5-(2-(3-acetamidoazetidin-1-yl)-5-chlorobenzyl)hexahydropyrrolo[3,4-c]pyrrole-2(1H)-carboxylate] | < 100 nM | – | 1000 to 10000 nM | 1000 to 10000 nM | – | – |
| CCn1ncc(CN2CC3CN(C(=O)OC(C(F)(F)F)C(F)(F)F)CC3C2)c1C(=O)N1CCOCC1 (stereo not drawn) [Example 73, 1,1,1,3,3,3-Hexafluoropropan-2-yl 5-((1-ethyl-5-(morpholine-4-carbonyl)-1H-pyrazol-4-yl)methyl)hexahydropyrrolo[3,4-c]pyrrole-2(1H)-carboxylate] | 100 to 1000 nM | – | > 10000 nM | > 10000 nM | – | – |
| CS(=O)(=O)NC1CCN(c2ccc(Cl)cc2CN2CC3CN(C(=O)OC(C(F)(F)F)C(F)(F)F)CC3C2)CC1 (stereo not drawn) [Example 6, 1,1,1,3,3,3-Hexafluoropropan-2-yl 5-(5-chloro-2-(4-(methylsulfonamido)piperidin-1-yl)benzyl)hexahydropyrrolo[3,4-c]pyrrole-2(1H)-carboxylate] | 100 to 1000 nM | – | 1000 to 10000 nM | 1000 to 10000 nM | – | – |
| CC(=O)NC1CCN(c2ccc(Cl)cc2CN2CC3CN(C(=O)OC(C(F)(F)F)C(F)(F)F)CC3C2)CC1 (stereo not drawn) [Example 5, 1,1,1,3,3,3-Hexafluoropropan-2-yl 5-(2-(4-acetamidopiperidin-1-yl)-5-chlorobenzyl)hexahydropyrrolo[3,4-c]pyrrole-2(1H)-carboxylate] | 100 to 1000 nM | – | 1000 to 10000 nM | 1000 to 10000 nM | – | – |
| O=C(ON1C(=O)CCC1=O)N1CC2CN(Cc3ccc(N4CCOCC4)cc3F)CC2C1 (stereo not drawn) [Example 79, 2,5-Dioxopyrrolidin-1-yl 5-(2-fluoro-4-morpholinobenzyl)hexahydropyrrolo[3,4-c]pyrrole-2(1H)-carboxylate] | 1000 to 10000 nM | – | 1000 to 10000 nM | 1000 to 10000 nM | – | – |
| Cn1cc(CN2CC3CN(C(=O)ON4C(=O)CCC4=O)CC3C2)c(-c2ccccc2)n1 (stereo not drawn) [Example 114, 2,5-Dioxopyrrolidin-1-yl 5-((1-methyl-3-phenyl-1H-pyrazol-4-yl)methyl)hexahydropyrrolo[3,4-c]pyrrole-2(1H)-carboxylate] | 100 to 1000 nM | – | > 10000 nM | 1000 to 10000 nM | – | – |
| CC(C)n1cc(CN2CC3CN(C(=O)ON4C(=O)CCC4=O)CC3C2)c(-c2ccccc2Cl)n1 (stereo not drawn) [Example 118, 2,5-Dioxopyrrolidin-1-yl 5-[[3-(2-chlorophenyl)-1-(propan-2-yl)-1H-pyrazol-4-yl]methyl]-octahydropyrrolo[3,4-c]pyrrole-2-carboxylate] | – | 25 to 75% | – | – | 25 to 75% | < 25% |
| O=C(ON1C(=O)CCC1=O)N1CC2CN(Cc3ccc(Cl)cc3N3CCOCC3)CC2C1 (stereo not drawn) [Example 93, 2,5-Dioxopyrrolidin-1-yl 5-[[4-chloro-2-(morpholin-4-yl)phenyl]methyl]-octahydropyrrolo[3,4-c]pyrrole-2-carboxylate] | – | 25 to 75% | – | – | 25 to 75% | < 25% |
| Cn1nc(-c2cccc(F)c2)cc1CN1CC2CN(C(=O)ON3C(=O)CCC3=O)CC2C1 (stereo not drawn) [Example 198, 2,5-dioxopyrrolidin-1-yl 5-((3-(3-fluorophenyl)-1-methyl-1H-pyrazol-5-yl)methyl)hexahydropyrrolo[3,4-c]pyrrole-2(1H)-carboxylate] | – | < 25% | – | – | < 25% | < 25% |
| CC(C)c1ccc(CN2CC3CN(C(=O)ON4C(=O)CCC4=O)CC3C2)c(N2CCOCC2)c1 (stereo not drawn) [Example 97, 2,5-Dioxopyrrolidin-1-yl 5-[[2-(morpholin-4-yl)-4-(propan-2-yl)phenyl]methyl]-octahydropyrrolo[3,4-c]pyrrole-2-carboxylate] | – | < 25% | – | – | < 25% | < 25% |
| CC(=O)N1CCN(c2cc(C(C)C)ccc2CN2CC3CN(C(=O)ON4C(=O)CCC4=O)CC3C2)CC1 (stereo not drawn) [Example 99, 2,5-Dioxopyrrolidin-1-yl 5-[[2-(4-acetylpiperazin-1-yl)-4-(propan-2-yl)phenyl]methyl]-octahydropyrrolo[3,4-c]pyrrole-2-carboxylate] | – | < 25% | – | – | < 25% | < 25% |
| CCn1cc(CN2CC3CN(C(=O)OC(C(F)(F)F)C(F)(F)F)CC3C2)c(-c2ccc(N3CCOCC3)cc2)n1 (stereo not drawn) [Example 68, 1,1,1,3,3,3-Hexafluoropropan-2-yl 5-([1-ethyl-3-[4-(morpholin-4-yl)phenyl]-1H-pyrazol-4-yl]methyl)-octahydropyrrolo[3,4-c]pyrrole-2-carboxylate] | – | > 75% | – | – | < 25% | < 25% |
| O=C(OC(C(F)(F)F)C(F)(F)F)N1CC2CN(Cc3ccc(Cl)cc3N3CCOCC3)CC2C1 (stereo not drawn) [Example 18, 1,1,1,3,3,3-Hexafluoropropan-2-yl 5-[[4-chloro-2-(morpholin-4-yl)phenyl]methyl]-octahydropyrrolo[3,4-c]pyrrole-2-carboxylate] | – | > 75% | – | – | 25 to 75% | 25 to 75% |
| CC(=O)N1CCN(c2cccc(CN3CC4CN(C(=O)ON5C(=O)CCC5=O)CC4C3)c2C)CC1 (stereo not drawn) [Example 143, 2,5-dioxopyrrolidin-1-yl 5-[[3-(4-acetylpiperazin-1-yl)-2-methylphenyl]methyl]-octahydropyrrolo[3,4-c]pyrrole-2-carboxylate] | – | < 25% | – | – | < 25% | < 25% |
| O=C(ON1C(=O)CCC1=O)N1CC2CN(Cc3ccc(C(=O)N4CCOCC4)cc3Cl)CC2C1 (stereo not drawn) [Example 163, 2,5-dioxopyrrolidin-1-yl 5-(2-chloro-4-(morpholine-4-carbonyl)benzyl)-hexahydropyrrolo[3,4-c]pyrrole-2(1H)-carboxylate] | – | < 25% | – | – | < 25% | < 25% |
| CC(=O)N1CCC(c2nn(C)cc2CN2CC3CN(C(=O)OC(C(F)(F)F)C(F)(F)F)CC3C2)CC1 (stereo not drawn) [Example 52, 1,1,1,3,3,3-Hexafluoropropan-2-yl 5-[[3-(1-acetylpiperidin-4-yl)-1-methyl-1H-pyrazol-4-yl]methyl]-octahydropyrrolo[3,4-c]pyrrole-2-carboxylate] | – | 25 to 75% | – | – | < 25% | < 25% |
